Measurements published in patent US7316989B2 (priority 2001, dated 2008).
Like-named read-outs stand apart in the source and are kept apart here.

How the values were obtained:
[1] = tested on: sweet potato dead arm fungus (Fusarium oxysporum); assay: Sweet potato stem rot control test; conditions: sweet potato (Benikomachi) roots submerged 30 min, 20 ppm in terms of cerebroside B; disease development of roots 26 days after transplantation
Experimental: The root parts of seedling sweet potatoes (variety: Benikomachi) infected with sweet potato dead arm fungus (Fusarium oxysporum) were submerged in each sample solution for 30 min before planting in a field. Individual plots were treated by the following sample liquids. Experimental plot (E) was treated with a liquid (concentration: 20 ppm in terms of cerebroside B) prepared by diluting ethanol extract concentrate A prepared in Example 1 by 150 times. Comparison plot (H) was treated with a liquid having a cerebroside B concentration of 20 ppm. The number of plants per plot was 20, and one plot consisted of four blocks which were provided at intervals of 60 cm. In this state, the plants were transplanted in the field.
The percentage disease development of roots was investigated 26 days after the transplantation, and the protective value was calculated from the average percentage disease development of roots.

rice blast (leaf blast) = type: in vivo, Magnaporthe grisea; conditions: rice (Koshihikari) field, spray 120 L/10 are on 44th and 51st days after transplantation; E and F 20 ppm in terms of cerebroside B, F and G with Mylinow spreader, G 500 ppm fthalide; leaf blast one month after initial application
[2] = tested on: tomato verticullium wilt fungus (Verticillium dahliae); assay: Tomato verticillium wilt control test; type: in vivo; conditions: submersion 12 hr, 20 ppm in terms of cerebroside B, 21st day
[3] = tested on: rice blast fungus (Magnaporthe grisea, race: 007); type: in vivo
[4] = tested on: Brown spot fungus (Cochliobolus miyabeanus); assay: Rice Brown spot control test; type: in vivo; conditions: same treatment as Example 3 (10 ppm in terms of cerebroside B), counted two days after spray inoculation
[5] = tested on: lettuce root rot fungus (Fusarium oxysporum f. sp. lactucae race SB1-1); assay: Lettuce root rot control test; type: in vivo; conditions: submersion treatment, 20 ppm cerebroside B solution (H)

CCCCCCCCCCCCCC[C@@H](O)C(=O)N[C@@H](CO[C@@H]1O[C@H](CO)[C@@H](O)[C@H](O)[C@H]1O)[C@H](O)/C=C/CC/C=C(\C)CCCCCCCCC [cerebroside B, (4E,8E)-N-D-2′-hydroxypalmitoyl-1-O-β-D-glucopyranosyl-9-methyl-4,8-sphingadienine]
Protective value [1]: 70 | Protective value (rice blast (leaf blast)): 93 | Protective value [2]: 60 | Protective value ([3]; Example 4, 10 ppm in terms of cerebroside B, 2 ml per pot to foliage, plot B with 0.1% Tween 20 as spreader): 87.6 | Number of lesions (average number of lesions per leaf) ([3]; Example 4, 10 ppm in terms of cerebroside B, 2 ml per pot to foliage, plot B with 0.1% Tween 20 as spreader, control plot 18.6): 2.3 | Protective value ([3]; rice (Akitakomachi), foliar application 2 ml per pot, diluted to 10 ppm in terms of cerebroside B, inoculation 3 days after treatment, lesions counted 5 days after inoculation): 90 | Protective value [4]: 87.3 | Number of lesions (average number of lesions per leaf) ([4]; control plot 10.2): 1.3 | Protective value ([5]; 28th day): 78 | Raw weight ratio on ground part ([5]; control plot = 100): 231
